Results: patent US5635518A, “N-substituted azaheterocyclic carboxylic acids and esters thereof” (Novo Nordisk A/S, priority 1993, dated 1997)
Where a name gives a salt, the structure may show the parent alone.

Tested on: GABA uptake
Assay: not given
Settings: oral; Yunger, L. M. et al., J. Pharm. Exp. Ther. 1984, 228, 109; cited from earlier work

Which “orally active inhibitor of GABA uptake” value does the source give for O=C(O)C1CCCN(CCC=C(c2ccccc2)c2ccccc2)C1 (stereo not shown) [SK&F 89976A, N-(4,4-diphenyl-3-buten-1-yl)nipecotic acid] here?
Its value is “orally active inhibitors of GABA uptake”.

With O=C(O)C1=CCCN(CCC=C(c2ccccc2)c2ccccc2)C1 [SK&F 100330A, N-(4,4-diphenyl-3-buten-1-yl)guvacine] as the compound, how does the “orally active inhibitor of GABA uptake” value read?
The value was “orally active inhibitors of GABA uptake”.

For O=C(O)CC1CCN(CCC=C(c2ccccc2)c2ccccc2)C1 (stereo not drawn) [SK&F 100561, N-(4,4-diphenyl-3-buten-1-yl)-homo-β-proline], which “orally active inhibitor of GABA uptake” value is on record?
The value was “orally active inhibitors of GABA uptake”.

Which “orally active inhibitor of GABA uptake” value does the source give for O=C(O)C1CCCN(CCC=C(c2ccccc2)c2cccs2)C1 (stereo not shown) [SK&F 100604J, N-(4-phenyl-4-(2-thienyl)-3-buten-1-yl)nipecotic acid] here?
Its value is “orally active inhibitors of GABA uptake”.

Tested on: GABA uptake
Assay: not given
Settings: from the synaptic cleft into presynaptic nerve terminals and glial cells; cited from earlier work

With O=C(O)C1CCCNC1 (stereo not shown) [3-piperidine-carboxylic acid] as the compound, how does the “inhibitor of GABA uptake” value read?
The value was “well-known and potent inhibitor of GABA uptake”.

Tested on: [^3 H]-GABA uptake
Assay: in vitro inhibition of [3H]-GABA uptake, rat cortical tissue homogenate (method of Fjalland)
Type: biochemical, Male wistar rat
Settings: 40 mM tris HCl pH 7.5, 60 minutes at 30° C.
Experimental: Values for in vitro inhibition of [^3 H]-GABA uptake for the invention compounds were assessed essentially by the method of Fjalland (Acta Pharmacol. Toxicol. 1978, 42, 73-76). Male wistar rat cortical tissue was gently homogenized by hand using a glass/PTFE homogenizer in 10 volumes of 0.32M sucrose. Incubation was performed in a 40 mM tris HCl buffer (pH 7.5 at 30° C.) containing […], 4 mM MgSO4, […] and 10 mM glucose, for 60 minutes at 30° C. Values for inhibition of GABA uptake for some representative compounds are recorded in Table I.

For O=C(O)[C@@H]1CCCN(CCOc2ccccc2)C1 [Example 1, (R)-1-(2-Phenoxyethyl)-3-piperidinecarboxylic acid hydrochloride], which IC50 is on record?
The IC50 was 64 µM.

Which IC50 does the source give for O=C(O)[C@@H]1CCCN(CCCCOc2ccccc2)C1 [Example 2, (R)-1-(4-Phenoxy-1-butyl)-3-piperidinecarboxylic acid hydrochloride] here?
The IC50 was 24 µM.

For O=C(O)[C@@H]1CCCN(CCOc2ccccc2Cc2ccccc2)C1 [Example 3, (R)-1-(2-(2-Benzylphenoxy)ethyl)-3-piperidinecarboxylic acid hydrochloride], which IC50 is on record?
Its IC50 is 6.7 µM.

Which IC50 does the source give for O=C(O)[C@@H]1CCCN(CCOc2cccc(-c3ccccc3)c2)C1 [Example 4, (R)-1-(2-(3-Phenylphenoxy)ethyl)-3-piperidinecarboxylic acid hydrochloride] here?
The IC50 was 5.6 µM.

With O=C(O)[C@@H]1CCCN(CCOc2ccccc2-c2ccccc2)C1 [Example 5, (R)-1-(2-(2-Phenylphenoxy)ethyl)-3-piperidinecarboxylic acid hydrochloride] as the compound, how does the IC50 read?
The IC50 was 5.6 µM.
